# Positions of bridges follow the written chain, without caps; N, C: chain ends. Residues, ends and D or L forms follow the SMILES beside them.
# System: Human oocytes
# Experiment: Randomized prospective study in human IVF (fertilin study)
# Type: in vivo
# Conditions: first step, 56 couples
# Description: A clinical trial was begun in the IVF laboratory of the MAP Center of Cochin, on Sep. 8, 2014, on 66 couples, the average age being 34.3±4.2 years old for the women and 37.0±5.2 for their partners. It is a randomized, single-center prospective study of in vitro fertilization (IVF) carried out in the presence or absence of FEEc. The oocytes, recovered from their cumulus, were divided up into two groups alternately into one and then into the other according to their order of recovery. When all the oocytes were recovered, a technician who had not participated in the recovery of the cumuli determined by randomization which of the two groups was inseminated in the presence of FEEc and which served as control. One part of the oocytes is incubated in the standard culture medium (Global, JCD), the other part in this same medium supplemented with 100 μM FEEc.
# The methodology of this study, represented diagrammatically in FIG. 9, is presented below. Human oocytes originating from women 18 to 43 years old were recovered by ovarian puncture after hormonal stimulation by gynecologists. They were divided up in a randomized manner into 2 groups: the oocytes incubated in the presence of a standard culture medium supplemented with 100 μM FEEc or of a standard culture medium (Global, JCD), then placed in an incubator at 37° C. under an atmosphere of 5% of CO2. […]
smiles,measurement,value
"N[C@H]1CSSC[C@@H](C(=O)O)NC(=O)[C@H](CCC(=O)O)NC(=O)[C@H](CCC(=O)O)NC(=O)[C@H](Cc2ccccc2)NC(=O)[C@H](CO)NC1=O [FEEc, C-S-F-E-E-C] (H-CSFEEC-OH; disulfide 1-6)",adverse effect,No adverse effect has been reported to date

# — patent publication US11278589B2, “Use of a cyclic tripeptide for improving cellular energy metabolism” (ASSISTANCE PUBLIQUE—HOPITAUX DE PARIS, priority 2015, dated 2022)
